Measured values taken from patent EP1345618B1, “CHLORZOXAZONE FOR THE TREATMENT OF PSORIASIS” (Switch Biotech Aktiengesellschaft, priority 2000, dated 2002).
Entries after “also recorded” stand apart in the source; their conditions may differ. Like-named read-outs stand apart in the source and are kept apart here.

What was measured:
Assay type in all cases: cell-based
HaCaT-Keratinozyten [1] = assay: Patch-clamp recording of the membrane potential (Vm) of HaCaT keratinocytes; conditions: for Depolarisierung auf ein Plateau während der Behandlung mit ATP: other K+ channel blockers, compared with ChTx and Clotrimazol
Protocol: Um einen Ionenkanal zu identifizieren, der wesentlich bei der Signaltransduktion wundheilungsspezifischer Signale beteiligt ist, wurden HaCaT-Zellen elektrophysiologisch untersucht. Die Anzucht der HaCaT-Keratinozyten erfolgte in DEM mit 10% FRS (Gibco BRL), den Antibiotika (Penicillin/Streptomycin 100 U/ml) zugesetzt worden war. Die Ca^2+-Endkonzentration betrug 1,8 mM. Die Zellen wurden inkubiert bis eine konfluente Zellkultur entstanden war; anschließend wurde das Kulturmedium durch "Standard Bath Solution" (SBS; 130 mM NaCl, 3 mM KCl; 2 mM CaCl2; 2 mM MgCl2; 25 mM HEPES/NaHEPES; 10 mM D-Glukose; pH 7,4) ersetzt und die Schalen an einem inversen Mikroskop (Axiovert, Zeiss) untersucht. Die "Patch"-Pipetten wurden aus Borosilikatröhrchen an einer horizontalen Ausziehvorrichtung (DMZ, Zeitz) nach dem zweistufigen Ausziehverfahren hergestellt. Die Pipetten wurden anschließend mit einer Lösung, die 135 mM Kaliumglukonat, 10 mM KCl, 1,6 mM Na2HPO4, 0,73 mM CaCl2, 1,03 mM MgCl2, 1 mM EGTA, 14 mM HEPES/NaHEPES und […] Nystatin; pH 7,2 enthielt, gefüllt (Ca^2+-Aktivität in der Lösung= 10^-7 M). Der Widerstand dieser "Patch"-Pipetten betrug […] im Bad. Nachdem eine Versiegelung im GΩ-Bereich hergestellt wurde (typischerweise 1,5-2 GΩ) wurde der Verstärker auf Strom-Klemm Modus umgestellt. […] Die elektrophysiologischen Signale wurden mittels eines Axopatch 200 Verstärkers in Verbindung mit einem TL-1 Labmaster Interface und AXOTAPE Software (Axon Instruments) aufgenommen, verstärkt und digitalisiert. Die statistische Auswertung (ein-Weg ANOVA mit Bonferri post-test Vergleich) wurde mit Graphpad prism 2.0 durchgeführt.
Bei Experimenten, bei denen die intrazelluläre Ca^2+-Konzentration durch Blitzphotolyse von "caged IP3" (Calbiochem) erhöht wurde, wurde das "Patch-Clamp Recording" in der Ganzzell-Konfiguration durchgeführt, wobei eine Pipettenlösung enthaltend 120 mM Kaliumglukonat, 20 mM KCl, 1 mM MgCl2, 10 mM HEPES/NaHEPES, 2 mM Na2ATP, 0,3 mM NaGTP (pH 7,2) und 10-100 µM "caged IP3" verwendet wurde. Nach 5-7 min Ganzzell-Aufzeichnung wurde IP3 durch einen UV-Lichtblitz freigesetzt, der durch eine Xenon-Bogen-Lampe (75 W; Anregungsfilter: 330 ± 40 nm), die mit dem Epifluoreszenzport des Mikroskops verbunden war, generiert wurde. Der UV-Lichtstrahl wurde durch das 40-fach Phasenkontrastobjektiv auf die Keratinozyten fokussiert. Die Dauer des Blitzes (1 s) wurde durch einen Uniblitz "Shutter" (Vincent Assoc.) eingestellt.
Bei Experimenten, bei denen die gesamte Lösung, in der die Zellen inkubiert wurden ausgewechselt wurde, wurde ein konischer Plexiglaseinsatz mit mehrfachen Einflußleitungen und einer Ausflußleitung in die Kulturschale eingesetzt, um das Volumen der Ableitkammer auf 1 ml zu reduzieren. Der Zufluß von Flüssigkeit war Schwerkraft-abhängig und wurde durch magnetische Ventile kontrolliert. Der Ausfluß wurde durch das Anlegen eines negativen Drucks mittels einer Vakuumpumpe bewirkt. Die Zugabe von Substanzen erfolgte unter visueller Beobachtung direkt auf die zu untersuchenden Keratinozyten mittels eines ferngesteuerten, magnetgesteuerten Y-Rohrsystem (Durchmesser des Ausflußröhrchens: 100 µm).
Die elektrophysiologischen Ableitungen mittels perforierten "Patches" wurden an HaCaT-Zellen durchgeführt, die zu einem konfluenten Monolayer gewachsen waren.

HaCaT-Zellen = assay: Anti-K10 immunostaining of HaCaT cells (differentiation); conditions: 1 mM 1-EBIO, 3 days, compared with control cells without 1-EBIO
Protocol: Dazu wurden proliferierende subkonfluente Zellen, Zellen, die gerade Konfluenz erreicht hatten, und ruhende Zellen (4 Tage nach Konfluenz) untersucht. Die Aktivität dieser Keratinozyten wurde anhand der differenzierungsspezifischen Keratin-10-Expression bestimmt. Dazu wurden die Zellen in eiskaltem PBS gewaschen und mit Aceton/Methanol (1:1) 20 min bei -20°C fixiert. Endogene Peroxidasen wurden mit 1 % H2O2 bei Raumtemperatur blockiert. Nachdem die unspezifischen Bindungsstellen mit 3% BSA in PBS abgesättigt worden waren, wurden die Zellen über Nacht in einer 1:500 Verdünnung des Maus-anti-K10 Antikörpers (DAKO) in 3% BSA in PBS bei 4°C inkubiert und anschließend drei Mal mit PBS und einmal mit 3% BSA in PBS gewaschen. Nach 2 h Inkubation mit einem Peroxidase-gekoppelten anti-Maus Antikörper bei Raumtemperatur wurden die Zellen dreimal mit PBS und einmal mit ddH2O gewaschen. Anschließend wurden die Zellen mit dem Peroxidase Substrat-Kit und 3-Amino-9-ethylcarbazol als chromogenes Substrat (Vector Laboratories) gefärbt. Während die proliferierenden Zellen und die Zellen, die gerade Konfluenz erreicht hatten, keine Färbung aufwiesen, zeigte es sich, daß ein Großteil der postkonfluenten Zellen gefärbt war (Figur 3). […]

HaCaT Zellen [2] = assay: Immunoblot of keratinocyte differentiation markers Involucrin, Keratin 1 and Keratin 10; conditions: 1, 100, 1000 µM; 4 days; control 1% DMSO
Text: Dazu wurden in einer 6-"Well"- Platte 5x10^5 HaCaT Zellen pro "Well" in Medium angezogen. Am nächsten Tag wurde das Medium gewechselt auf Medium, das verschiedene Konzentrationen an 1-EBIO bzw. […] Als Lösungsmittelkontrolle wurde 1% DMSO (Spur "C") in Medium benutzt. Die Zellen wurden 4 Tage lang inkubiert, wobei das Medium täglich ersetzt wurde. Nach 4 Tagen wurden die Proteinkonzentration in den Zelllysaten bestimmt (BCA Assay, Pierce). Gleiche Proteinmengen aus den verschiedenen Lysaten wurden anschliessend mittels Immunoblot gegen die Keratinozytendifferenzierungsmarker Involucrin (1:500, Sigma) sowie Keratin 1 und 10 (1:250, Progen) verglichen (Figur 6).

HaCaT Zellen [3] = assay: BrDU incorporation cell proliferation ELISA (A[450 nm])
Text: Dabei wurde zunächst der Einfluss verschiedener Konzentrationen von 1-EBIO auf die Wachstumsrate von HaCaT Zellen in An- und Abwesenheit von Serum gemessen. Zu diesem Zweck wurden 1x10^4 HaCaT Zellen pro "Well" in einer 96-"Well" Platte 5 Tage lang in Keratinozytenwachstumsmedium (KGM) kultiviert, um den Zellzyklus zu synchronisieren, gefolgt von einer zweitägigen Inkubation verschiedener Konzentrationen an 1-EBIO in KGM (siehe Figuren 7 und 8) in Abwesenheit (Figur 7) und in Anwesenheit (Figur 8) von Serum. […] Als Lösungmittelkontrolle diente 1% DMSO in KGM. Die Zellproliferation wurde mit Hilfe des Einbaus von […] (BrDU) während der Zellteilung gemäß den Angaben des Herstellers gemessen ("The Cell Proliferation ELISA, BrDU, Roche). Der Einbau von BrDU wurde dabei durch die Bestimmung der Absorption bei 450 nm quantifiziert. In Figur 7 und 8 ist jeweils die Absorption (A[450nm]) als Maß für die Proliferationsrate auf der Y-Achse aufgetragen. Eine höhere Absorption spiegelt eine stärkere Proliferation wieder.

HaCaT-Keratinozyten [4] = assay: Proliferation by daily count of cells per well; conditions: subconfluent cells, n=3
Protocol: Um den Effekt der Inhibitoren des hIK1 Kanals, Clotrimazol und Charybdotoxin, zu untersuchen, wurde zu subkonfluent gewachsenen Zellen entweder 10 µM Clotrimazol, 200 nM Charybdotoxin (ChTx) oder 1 mM 1-EBIO zugegeben und jeden Tag die Anzahl Zellen pro well bestimmt.
Wie aus Figur 5 (n=3) ersichtlich ist, inhibierte die Zugabe sowohl eines der beiden Inhibitoren als auch die Zugabe des Aktivators von hIK1 die Proliferation, während das Wachstum der Kontrollzellen, denen keine Modulatoren zugesetzt worden waren, unbeeinträchtigt blieb.

Compound: CCn1c(=O)[nH]c2ccccc21 [1-EBIO, 1-Ethyl-2-benzimidazolinon]
- transiente Depolarisierung nach ATP (HaCaT-Keratinozyten [1]; ATP 10 µM in the presence of 1-EBIO 1 mM): viel stärker war als unter Kontrollbedingungen
- Anteil an K10-gefärbten Zellen (Differenzierung) (HaCaT-Zellen): signifikant reduzierten Anteil an gefärbten Zellen
- Differenzierung (Involucrin, K1, K10) (HaCaT Zellen [2]): dosisabhängig inhibieren
- Dosisabhängigkeit der Inhibition der seruminduzierten Proliferation (HaCaT Zellen [3]; 1-EBIO, various concentrations, with serum): dosisabhängig ist und den stärksten Effekt bei einer Konzentration von 1 mM zeigt
- Zellproliferation ohne Serum (HaCaT Zellen [3]; KGM without serum, 2 days, 1-EBIO various concentrations, Zoxazolamin 1 mM): alleine nicht in der Lage sind, die Zellproliferation zu stimulieren
- Apoptose / Morphologie der Zellen (HaCaT Zellen [3]; cells treated with the activators): keine Anzeichen von Apoptose
- seruminduzierte Proliferation (HaCaT Zellen [3]; with 10% FCS, 2 days, 1-EBIO various concentrations, Zoxazolamin 1 mM): in der Lage die seruminduzierte Proliferation zu inhibieren
- Proliferation (Anzahl Zellen pro well) (HaCaT-Keratinozyten [4]; 1-EBIO 1 mM): inhibierten die Proliferation vollständig; also recorded: vollständigen Inhibition

Compound: Nc1ncnc2c1ncn2[C@@H]1O[C@H](COP(=O)(O)OP(=O)(O)OP(=O)(O)O)[C@@H](O)[C@H]1O [ATP]
- Reversibilität der Hyperpolarisierung (HaCaT-Keratinozyten [1]; 1 µM ATP, n=9): durch Auswaschen der Lösung rasch reversiblen Prozeß
- Änderung des Membranpotentials (HaCaT-Keratinozyten [1]; ATP 1-1000 µM perfusion, perforated patch, current clamp, confluent monolayer): biphasische Änderung des Membranpotentials, die aus einer kurzen, transienten Depolarisierung gefolgt von einer deutlichen und langanhaltenden Hyperpolarisierung bestand
- Dauer der Hyperpolarisierung nach ATP-Zugabe (HaCaT-Keratinozyten [1]; ATP ≥ 10 µM, added for 5 min): ≥ 5 min

Compound: [Ba+2] [Ba^2+]
- Depolarisierung auf ein Plateau während der Behandlung mit ATP (HaCaT-Keratinozyten [1]): Keiner der anderen getesteten K^+-Kanalblocker (TEA, Ba^2+, und Verapamil) führten zu einer vergleichbaren Depolarisierung auf ein Plateau

Compound: Clc1ccccc1C(c1ccccc1)(c1ccccc1)n1ccnc1 [Clotrimazol]
- Einfluß auf die Repolarisierung unter ATP (HaCaT-Keratinozyten [1]): Derselbe Effekt
- Proliferation (Anzahl Zellen pro well) (HaCaT-Keratinozyten [4]; Clotrimazol 10 µM): inhibierten die Proliferation vollständig; also recorded: vollständigen Inhibition

Compound: CCn1c(=O)[nH]c2cc(Cl)c(Cl)cc21 [DCEBIO, 5,6-dichloro-1-ethyl-1,3-dihydro-2H-benzimidazol-2-on]
- Stärke der Depolarisation relativ zu 1-EBIO (HaCaT-Keratinozyten [1]; HaCaT Zellen, relative to 1-EBIO): 300-1000 fach

Compound: NCCc1c[nH]cn1 [Histamin]
- elektrophysiologische Antwort im Vergleich zu ATP (HaCaT-Keratinozyten [1]; Histamin 100 µM, n=4): quantitativ und kinetisch praktisch identische Antwort

Compound: O=P(O)(O)O[C@@H]1[C@H](O)[C@H](O)[C@@H](OP(=O)(O)O)[C@H](OP(=O)(O)O)[C@H]1O [IP3]
- Spannungsänderung nach Freisetzung von IP3 (HaCaT-Keratinozyten [1]; whole-cell, caged-IP3 10-100 µM, UV flash photolysis, n=7): schnellen, transienten Depolarisierung, gefolgt von einer Hyperpolarisierung

Compound: CCCCCCCCCCCCCC(=O)O[C@@H]1[C@@H](C)[C@@]2(O)[C@@H](C=C(CO)C[C@]3(O)C(=O)C(C)=C[C@@H]23)[C@@H]2C(C)(C)[C@]12OC(C)=O [PMA]
- Membranpotential (langsame Depolarisierung auf) (HaCaT-Keratinozyten [1]): -32 ± 2 mV
- Einfluß auf den Effekt von ATP (HaCaT-Keratinozyten [1]; PMA 60 ng/µl, n=4): beeinflußte jedoch nicht den Effekt von ATP

Compound: CC[N+](CC)(CC)CC [TEA]
- Depolarisierung auf ein Plateau während der Behandlung mit ATP (HaCaT-Keratinozyten [1]): Keiner der anderen getesteten K^+-Kanalblocker (TEA, Ba^2+, und Verapamil) führten zu einer vergleichbaren Depolarisierung auf ein Plateau

Compound: Bradykinin (RPPGFSPFR; Bradykinin; UniProt P01042 381-389, looked up)
- elektrophysiologische Antwort im Vergleich zu ATP (HaCaT-Keratinozyten [1]; Bradykinin 10 µM, n=3): quantitativ und kinetisch praktisch identische Antwort

Compound: Calphostin C
- Einfluß auf die ATP-vermittelte Spannungsänderung (HaCaT-Keratinozyten [1]; Calphostin C 50 nM): beeinflußte jedoch ebenfalls nicht die ATP-vermittelte Spannungsänderung
- Membranpotential (schwache Hyperpolarisierung auf) (HaCaT-Keratinozyten [1]; Calphostin C 50 nM): -58 ± 3 mV

Compound: Charybdotoxin
- Einfluß auf die bestehende ATP-vermittelte Hyperpolarisierung (HaCaT-Keratinozyten [1]; ChTx 100 nM added after ATP, ATP still present, n=2): vollständige Umkehrung der Hyperpolarisierung
- Einfluß auf die Repolarisierung unter ATP (HaCaT-Keratinozyten [1]; ChTx 100 nM before ATP, n=4): verhinderte ChTx die Repolarisierung vollständig
- Einfluß auf die ATP-vermittelte Hyperpolarisierung (HaCaT-Keratinozyten [1]; ChTx 10-100 nM before ATP, n=15): verhinderte eine Hyperpolarisierung
- Inhibition der ATP-vermittelten Hyperpolarisierung (HaCaT-Keratinozyten [1]; various concentrations, added before ATP): dosisabhängige Inhibition der ATP-vermittelten Hyperpolarisierung
- Proliferation (Anzahl Zellen pro well) (HaCaT-Keratinozyten [4]; Charybdotoxin 200 nM): die Proliferation verlangsamte; also recorded: nur verlangsamtes Wachstum
